Patent US20250235543A1, “MODIFIED PROTEINS AND PROTEIN DEGRADERS” (Cullgen (Shanghai), Inc., priority 2021, published 2025)

Tests used:
cyclin D1 = assay: Cyclin D1 percentage degradation in Calu-1 cells (immunoblotting); assay type: cell-based; details: 16 hours
Method in brief: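 Cells were rinsed once in cold PBS and lysed in cold RIPA buffer containing protease and phosphatase inhibitors, with gentle agitation at 4° C. for 30 min. Lysates were spun at 13,000 rpm for 10 min at 4° C., protein was measured by BCA, and samples were boiled in Laemmli buffer at 99° C. for 5 min before SDS-PAGE immunoblotting.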

CDK4 = target: T1, CDK4 (Homo sapiens, UniProt P11802); assay: CDK4 percentage degradation in Calu-1 cells (immunoblotting); assay type: cell-based; details: Calu-1 cells, 16 hours; for inhibition at 0.2 µM: 200 nM, read-out: CDK4 Degradation (200 nM)
T1 construct: endogenous in cells; host or cells: Calu-1
Method in brief: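 Cultured cells were rinsed once in cold PBS and lysed in cold RIPA buffer containing protease and phosphatase inhibitors, with gentle agitation at 4° C. for 30 min. Lysates were centrifuged at 13,000 rpm for 10 min at 4° C., and protein was quantified by BCA. Samples were then separated by SDS-PAGE, detected with ECL, and the CDK4 bands quantified in Image Lab.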

T1 sequence (P11802 2-303 limits assumed): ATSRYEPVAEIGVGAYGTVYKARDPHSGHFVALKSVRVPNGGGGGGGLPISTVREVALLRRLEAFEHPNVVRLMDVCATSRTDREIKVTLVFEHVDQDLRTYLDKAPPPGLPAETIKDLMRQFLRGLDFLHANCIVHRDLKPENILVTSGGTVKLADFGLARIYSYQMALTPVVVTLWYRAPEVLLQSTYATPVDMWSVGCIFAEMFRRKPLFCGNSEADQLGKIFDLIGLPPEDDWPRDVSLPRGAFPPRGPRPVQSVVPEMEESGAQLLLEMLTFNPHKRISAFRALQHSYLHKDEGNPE
T1 sequence (P24385 whole entry partner): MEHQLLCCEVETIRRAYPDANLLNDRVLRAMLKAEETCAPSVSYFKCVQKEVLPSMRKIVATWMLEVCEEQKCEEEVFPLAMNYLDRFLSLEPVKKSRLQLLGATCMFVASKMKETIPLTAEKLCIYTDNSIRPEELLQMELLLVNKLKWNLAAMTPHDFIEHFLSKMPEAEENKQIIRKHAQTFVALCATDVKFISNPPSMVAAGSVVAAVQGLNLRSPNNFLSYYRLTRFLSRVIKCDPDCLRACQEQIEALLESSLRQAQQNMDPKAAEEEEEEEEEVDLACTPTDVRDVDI
T1 sequence (Q16531 2-1140 limits assumed, further chain): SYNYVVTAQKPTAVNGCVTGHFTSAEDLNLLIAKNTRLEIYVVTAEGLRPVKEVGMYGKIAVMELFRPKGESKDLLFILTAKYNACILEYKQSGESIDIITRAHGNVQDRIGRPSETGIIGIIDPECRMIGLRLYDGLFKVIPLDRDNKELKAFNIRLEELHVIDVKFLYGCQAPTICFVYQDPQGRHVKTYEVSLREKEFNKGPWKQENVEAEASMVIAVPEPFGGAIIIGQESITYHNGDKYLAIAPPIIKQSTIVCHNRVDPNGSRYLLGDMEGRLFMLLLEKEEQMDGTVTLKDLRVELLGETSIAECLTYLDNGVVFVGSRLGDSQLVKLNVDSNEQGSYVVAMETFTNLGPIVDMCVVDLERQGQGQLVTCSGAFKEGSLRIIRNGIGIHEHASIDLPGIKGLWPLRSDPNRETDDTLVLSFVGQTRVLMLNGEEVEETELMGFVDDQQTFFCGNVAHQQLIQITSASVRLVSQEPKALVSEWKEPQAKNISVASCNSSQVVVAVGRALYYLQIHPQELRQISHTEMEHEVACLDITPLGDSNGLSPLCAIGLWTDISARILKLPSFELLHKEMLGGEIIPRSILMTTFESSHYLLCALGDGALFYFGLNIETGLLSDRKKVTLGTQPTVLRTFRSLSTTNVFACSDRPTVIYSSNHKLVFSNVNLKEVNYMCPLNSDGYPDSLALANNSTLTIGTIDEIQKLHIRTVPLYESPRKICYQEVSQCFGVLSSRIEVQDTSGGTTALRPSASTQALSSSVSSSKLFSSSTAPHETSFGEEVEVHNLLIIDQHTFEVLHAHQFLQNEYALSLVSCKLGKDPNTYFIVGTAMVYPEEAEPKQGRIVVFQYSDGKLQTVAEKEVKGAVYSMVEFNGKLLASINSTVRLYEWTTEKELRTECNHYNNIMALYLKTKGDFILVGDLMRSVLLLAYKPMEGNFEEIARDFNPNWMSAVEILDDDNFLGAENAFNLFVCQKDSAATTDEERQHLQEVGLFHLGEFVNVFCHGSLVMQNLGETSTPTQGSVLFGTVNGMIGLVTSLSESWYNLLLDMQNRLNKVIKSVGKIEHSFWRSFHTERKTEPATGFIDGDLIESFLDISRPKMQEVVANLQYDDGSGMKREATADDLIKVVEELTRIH

Row | inhibition at 0.2 µM (CDK4) [%] | inhibition at 10 µM (CDK4; 10 μM, read-out: CDK4 Degradation (10 μM)) [%] | SMILES | CyclinD1 Degradation (200 nM) (cyclin D1) | CyclinD1 Degradation (10 μM) (cyclin D1; 10 μM)
1 | 50 to 80 |  | CC(=O)c1c(C)c2cnc(Nc3ccc(N4CCN(CC(=O)NCCOCCOCCOCCOCCOCCNc5ccc(C)c(C(=O)Nc6nc(C)c(C)s6)c5)CC4)cn3)nc2n(C2CCCC2)c1=O [CPD-097, 5-((1-(4-(6-((6-Acetyl-8-cyclopentyl-5-methyl-7-oxo-7,8-dihydropyrido[2,3-d]pyrimidin-2-yl)amino)pyridin-3-yl)piperazin-1-yl)-2-oxo-6,9,12,15,18-pentaoxa-3-azaicosan-20-yl)amino)-N-(4,5-dimethylthiazol-2-yl)-2-methylbenzamide] | A (protein percentage degradation >=80%) | 
2 | > 80 |  | CC(=O)c1c(C)c2cnc(Nc3ccc(N4CCN(CC(=O)NCCOCCOCCC(=O)Nc5ccccc5C(=O)Nc5nc(C(C)C)c(C)s5)CC4)cn3)nc2n(C2CCCC2)c1=O [CPD-070, 2-(3-(2-(2-(2-(4-(6-((6-Acetyl-8-cyclopentyl-5-methyl-7-oxo-7,8-dihydropyrido[2,3-d]pyrimidin-2-yl)amino)pyridin-3-yl)piperazin-1-yl)acetamido)ethoxy)ethoxy)propanamido)-N-(4-isopropyl-5-methylthiazol-2-yl)benzamide] | A (protein percentage degradation >=80%) | 
3 | < 30 |  | CC(=O)c1c(C)c2cnc(Nc3ccc(N4CCN(CC(=O)NCCOCCOCCC(=O)Nc5ccccc5C(=O)Nc5nc(C)ns5)CC4)cn3)nc2n(C2CCCC2)c1=O [CPD-058, 2-(3-(2-(2-(2-(4-(6-((6-Acetyl-8-cyclopentyl-5-methyl-7-oxo-7,8-dihydropyrido[2,3-d]pyrimidin-2-yl)amino)pyridin-3-yl)piperazin-1-yl)acetamido)ethoxy)ethoxy)propanamido)-N-(3-methyl-1,2,4-thiadiazol-5-yl)benzamide] | D (protein percentage degradation <30%) | 
4 | 50 to 80 |  | CC(=O)c1c(C)c2cnc(Nc3ccc(N4CCN(CC(=O)NCCCCNc5cc(C)ccc5C(=O)Nc5ccc(N(C)C)nn5)CC4)cn3)nc2n(C2CCCC2)c1=O [CPD-375, 2-((4-(2-(4-(6-((6-Acetyl-8-cyclopentyl-5-methyl-7-oxo-7,8-dihydropyrido[2,3-d]pyrimidin-2-yl)amino)pyridin-3-yl)piperazin-1-yl)acetamido)butyl)amino)-N-(6-(dimethylamino)pyridazin-3-yl)-4-methylbenzamide] | A (protein percentage degradation >=80%) | 
5 | < 30 |  | CC(=O)c1c(C)c2cnc(Nc3ccc(N4CCN(C(=O)CCCCCCNc5cccc(C(=O)Nc6nc(C)c(C)s6)c5C)CC4)cn3)nc2n(C2CCCC2)c1=O [CPD-138, 3-((7-(4-(6-((6-Acetyl-8-cyclopentyl-5-methyl-7-oxo-7,8-dihydropyrido[2,3-d]pyrimidin-2-yl)amino)pyridin-3-yl)piperazin-1-yl)-7-oxoheptyl)amino)-N-(4,5-dimethylthiazol-2-yl)-2-methylbenzamide] | D (protein percentage degradation <30%) | 
6 | < 30 |  | COc1ccc(NC(=O)c2cccc(NCCOCCOCCNC(=O)CN3CCN(c4ccc(Nc5ncc6c(C)c(C(C)=O)c(=O)n(C7CCCC7)c6n5)nc4)CC3)c2C)nn1 [CPD-341, 3-((2-(2-(2-(2-(4-(6-((6-Acetyl-8-cyclopentyl-5-methyl-7-oxo-7,8-dihydropyrido[2,3-d]pyrimidin-2-yl)amino)pyridin-3-yl)piperazin-1-yl)acetamido)ethoxy)ethoxy)ethyl)amino)-N-(6-methoxypyridazin-3-yl)-2-methylbenzamide] | D (protein percentage degradation <30%) | 
7 | 50 to 80 |  | CC(=O)c1c(C)c2cnc(Nc3ccc(N4CCN(CC(=O)NCCCCCCCNc5cccc(C(=O)Nc6nc(C)c(C)s6)c5C)CC4)cn3)nc2n(C2CCCC2)c1=O [CPD-102, 3-((7-(2-(4-(6-((6-Acetyl-8-cyclopentyl-5-methyl-7-oxo-7,8-dihydropyrido[2,3-d]pyrimidin-2-yl)amino)pyridin-3-yl)piperazin-1-yl)acetamido)heptyl)amino)-N-(4,5-dimethylthiazol-2-yl)-2-methylbenzamide] | A (protein percentage degradation >=80%) | 

More lines, now with the values behind:

Row | SMILES | inhibition at 0.2 µM (CDK4) [%] | inhibition at 10 µM (CDK4; 10 μM, read-out: CDK4 Degradation (10 μM)) [%] | CyclinD1 Degradation (200 nM) (cyclin D1) | CyclinD1 Degradation (10 μM) (cyclin D1; 10 μM)
8 | COc1ccc(NC(=O)c2ccccc2NC(=O)CCOCCN2CCC(NC(=O)CN3CCN(c4ccc(Nc5ncc6c(C)c(C(C)=O)c(=O)n(C7CCCC7)c6n5)nc4)CC3)CC2)nn1 [CPD-348, 2-(3-(2-(4-(2-(4-(6-((6-Acetyl-8-cyclopentyl-5-methyl-7-oxo-7,8-dihydropyrido[2,3-d]pyrimidin-2-yl)amino)pyridin-3-yl)piperazin-1-yl)acetamido)piperidin-1-yl)ethoxy)propanamido)-N-(6-methoxypyridazin-3-yl)benzamide] | < 30 |  | D (protein percentage degradation <30%) | 
9 | CC(=O)c1c(C)c2cnc(Nc3ccc(N4CCN(CC(=O)NCCOCCOCCC(=O)Nc5ccccc5C(=O)Nc5cc(C)n(C(C)C)n5)CC4)cn3)nc2n(C2CCCC2)c1=O [CPD-076, 2-(3-(2-(2-(2-(4-(6-((6-Acetyl-8-cyclopentyl-5-methyl-7-oxo-7,8-dihydropyrido[2,3-d]pyrimidin-2-yl)amino)pyridin-3-yl)piperazin-1-yl)acetamido)ethoxy)ethoxy)propanamido)-N-(1-isopropyl-5-methyl-1H-pyrazol-3-yl)benzamide] | 50 to 80 |  | C (protein percentage degradation <50%, and >=30%) | 
10 | CC(=O)c1c(C)c2cnc(Nc3ccc(N4CCN(CC(=O)NCCOCCOCCC(=O)Nc5ccccc5C(=O)Nc5nc(C6CCNCC6)c(C)s5)CC4)cn3)nc2n(C2CCCC2)c1=O [CPD-072, 2-(3-(2-(2-(2-(4-(6-((6-Acetyl-8-cyclopentyl-5-methyl-7-oxo-7,8-dihydropyrido[2,3-d]pyrimidin-2-yl)amino)pyridin-3-yl)piperazin-1-yl)acetamido)ethoxy)ethoxy)propanamido)-N-(5-methyl-4-(piperidin-4-yl)thiazol-2-yl)benzamide] | 50 to 80 |  | D (protein percentage degradation <30%) | 
11 | CC(=O)c1c(C)c2cnc(Nc3ccc(N4CCN(CC(=O)NCCOCCOCCC(=O)Nc5ccccc5C(=O)Nc5ncc(C)s5)CC4)cn3)nc2n(C2CCCC2)c1=O [CPD-051, 2-(3-(2-(2-(2-(4-(6-((6-Acetyl-8-cyclopentyl-5-methyl-7-oxo-7,8-dihydropyrido[2,3-d]pyrimidin-2-yl)amino)pyridin-3-yl)piperazin-1-yl)acetamido)ethoxy)ethoxy)propanamido)-N-(5-methylthiazol-2-yl)benzamide] | > 80 |  | A (protein percentage degradation >=80%) | 
12 | Cc1nc(NC(=O)c2ccccc2NC(=O)CCOCCOCCOCCOCCNC(=O)CN2CCN(Cc3ccc(Nc4ncc(F)c(-c5cc(F)c6nc(C)n(C(C)C)c6c5)n4)nc3)CC2)sc1C [CPD-283, N-(4,5-Dimethylthiazol-2-yl)-2-(1-(4-((6-((5-fluoro-4-(4-fluoro-1-isopropyl-2-methyl-1H-benzo[d]imidazol-6-yl)pyrimidin-2-yl)amino)pyridin-3-yl)methyl)piperazin-1-yl)-2-oxo-6,9,12,15-tetraoxa-3-azaoctadecan-18-amido)benzamide] |  | < 30 |  | D (protein percentage degradation < 30%)
13 | CC(=O)c1c(C)c2cnc(Nc3ccc(N4CCN(CC(=O)NCCOCCOCCC(=O)Nc5ccccc5C(=O)Nc5cn(C)cn5)CC4)cn3)nc2n(C2CCCC2)c1=O [CPD-063, 2-(3-(2-(2-(2-(4-(6-((6-Acetyl-8-cyclopentyl-5-methyl-7-oxo-7,8-dihydropyrido[2,3-d]pyrimidin-2-yl)amino)pyridin-3-yl)piperazin-1-yl)acetamido)ethoxy)ethoxy)propanamido)-N-(1-methyl-1H-imidazol-4-yl)benzamide] | < 30 |  | D (protein percentage degradation <30%) | 
14 | CC(=O)c1c(C)c2cnc(Nc3ccc(N4CCN(CC(=O)NCCOCCOCCC(=O)Nc5ccccc5C(=O)Nc5nc(C6CCOCC6)c(C)s5)CC4)cn3)nc2n(C2CCCC2)c1=O [CPD-062, 2-(3-(2-(2-(2-(4-(6-((6-Acetyl-8-cyclopentyl-5-methyl-7-oxo-7,8-dihydropyrido[2,3-d]pyrimidin-2-yl)amino)pyridin-3-yl)piperazin-1-yl)acetamido)ethoxy)ethoxy)propanamido)-N-(5-methyl-4-(tetrahydro-2H-pyran-4-yl)thiazol-2-yl)benzamide] | < 30 |  | D (protein percentage degradation <30%) | 
15 | CC(=O)c1c(C)c2cnc(Nc3ccc(N4CCN(CC(=O)NCCOCCOCCC(=O)Nc5ccccc5C(=O)Nc5ncc(C)cn5)CC4)cn3)nc2n(C2CCCC2)c1=O [CPD-055, 2-(3-(2-(2-(2-(4-(6-((6-Acetyl-8-cyclopentyl-5-methyl-7-oxo-7,8-dihydropyrido[2,3-d]pyrimidin-2-yl)amino)pyridin-3-yl)piperazin-1-yl)acetamido)ethoxy)ethoxy)propanamido)-N-(5-methylpyrimidin-2-yl)benzamide] | < 30 |  | D (protein percentage degradation <30%) | 
16 | CC(=O)c1c(C)c2cnc(Nc3ccc(N4CCN(CC(=O)NCCOCCOCCC(=O)Nc5ccccc5C(=O)Nc5ccc(C#N)cn5)CC4)cn3)nc2n(C2CCCC2)c1=O [CPD-083, 2-(3-(2-(2-(2-(4-(6-((6-Acetyl-8-cyclopentyl-5-methyl-7-oxo-7,8-dihydropyrido[2,3-d]pyrimidin-2-yl)amino)pyridin-3-yl)piperazin-1-yl)acetamido)ethoxy)ethoxy)propanamido)-N-(5-cyanopyridin-2-yl)benzamide] | 50 to 80 |  | A (protein percentage degradation >=80%) | 
